Experimental data: patent publication US20200190062A1, “HETEROCYCLIC COMPOUND AND PHARMACEUTICAL COMPOSITION COMPRISING SAME” (BEYONDBIO INC., priority 2015, published 2020)
Structures can show the parent of a compound that is named as a salt.

What was measured:
NCI-H23 = assay: Inhibition of cancer cell proliferation (MTT); type: cell-based, human
How it was run: (§1)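 Plate 3000 cells/well and let them adhere for 16 h. Add compound (0.004, 0.013, 0.04, 0.12, 0.37, 1.1, 3.3, 10 uM; 0.08% DMSO) and culture for 72 h. Add MTT for 2 h, dissolve formazan in DMSO, read at 535 nm, and fit GI50.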

HCT116 = assay: Inhibition of cancer cell proliferation (MTT); type: cell-based, human
A549 = assay: Inhibition of cancer cell proliferation (MTT); type: cell-based, human
How it was run: as §1

CDK6/cyclinD3 = molecular target: T1, CDK6/cyclinD3 (Homo sapiens, UniProt Q00534); assay: Inhibition of CDK enzyme activity (ADP-Glo kinase assay); type: biochemical; conditions: 10 uM ATP, histone H1 substrate; read-out: IC50 CDK6/cyclinD
T1 construct: purchased Merck Millipore
Protocol: (§2) Test compounds were prepared by dissolving the compounds obtained in the above Examples in dimethylsulfoxide (DMSO) at a concentration of 10 mM. The test compounds were diluted to 200 nM, 50 nM, […], 3.13 nM, 0.78 nM, and 0.2 nM and used in an enzyme reaction.
(§3) CDK enzyme reaction was conducted in a buffer containing 50 mM Tris-HCl (pH 7.5), 10 mM MgCl2, 1 mM EGTA, 1 mM EDTA, and 2 mM DTT. CDK1/cyclinB, CDK2/cylcinE, CDK5/p25, and CDK6/cyclinD3 enzymes commercially available from Merck Millipore were used for CDK1, CDK2, CDK5, and CDK6 enzymes, respectively, and CDK4/cyclinD1 enzyme commercially available from Signalchem (US) was used for CDK4. For CDK1, a reaction proceeded by adding 10 nM CDK1/cyclinB and 0.125 mg/ml histone H1 (Merck Millipore) substrate to the buffer and then adding 10 uM ATP thereto. For CDK2, a reaction was proceeded by adding 10 nM CDK2/cyclinE and 0.125 mg/ml histone H1 substrate to the buffer and then adding 10 uM ATP thereto. For CDK5, a reaction was proceeded by adding 10 nM CDK5/p25 and 0.125 mg/ml histone H1 substrate to the buffer and then adding 10 uM ATP thereto. For CDK4, a reaction was proceeded by adding 20 nM CDK4/cyclinD1 and 0.125 mg/ml Rb protein (Merck Millipore) to the buffer and then adding 10 uM ATP thereto. For CDK6, a reaction was proceeded by adding 50 nM CDK6/cyclinD3 and 0.125 mg/ml histone H1 substrate to the buffer and then adding 10 uM ATP thereto. Each enzyme reaction was incubated at 30° C. for 60 min. Then, the amount of ADP produced was measured using Victor X4 instrument (Perkin Elmer) after generating luminescence using ADP-Glo kinase assay kit (Promega, US). An inhibition effect on each enzyme was represented as a percentage of the luminescence value in the presence of the test compounds relative to the luminescence value without the test compounds. IC50 (nM) is the concentration of the compound to inhibit 50% of the enzyme activity.

CDK2/cyclinE = molecular target: T2, CDK2/cyclinE (Homo sapiens, UniProt P24941); assay: as above; type: biochemical; conditions: 10 uM ATP, histone H1 substrate
T2 construct: purchased Merck Millipore
Protocol: as §2, §3

CDK4/cyclinD1 = molecular target: T3, CDK4/cyclinD1 (Homo sapiens, UniProt P11802); assay: as above; type: biochemical; conditions: 10 uM ATP, Rb protein substrate; read-out: IC50 CDK4/cyclinD
T3 construct: purchased Signalchem (US)
Protocol: as §2, §3

CDK5/p25 = molecular target: T4, CDK5/p25 (Homo sapiens, UniProt Q00535); assay: as above; type: biochemical; conditions: 10 uM ATP, histone H1 substrate
T4 construct: purchased Merck Millipore
Protocol: as §2, §3

CDK1/cyclinB = molecular target: T5, CDK1/cyclinB (Homo sapiens, UniProt P06493); assay: as above; type: biochemical; conditions: 10 uM ATP, histone H1 substrate
T5 construct: purchased Merck Millipore
Protocol: as §2, §3

SH-SY5Y = assay: Inhibition of cancer cell proliferation (MTT); type: cell-based, human
How it was run: as §1

SK-N-SH = assay: Inhibition of cancer cell proliferation (MTT); type: cell-based, human
How it was run: as §1

U-87MG = assay: Inhibition of cancer cell proliferation (MTT); type: cell-based, human
How it was run: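 Absorbance at 535 nm of DMSO-dissolved formazan (2 h MTT) gives viability versus 0.08% DMSO-treated cells, and GI50 is derived from eight concentrations between 0.004 and 10 uM. Exposure lasts 72 h at 37 °C, 5% CO2, using 3000 cells/well in 10% FBS medium ([…] for NCI-H23, otherwise DMEM).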

T98G = assay: Inhibition of cancer cell proliferation (MTT); type: cell-based, human
How it was run: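 Growth inhibition over 72 h was measured in attached cultures (3000 per well) with 0.08% DMSO as the control. Viable cells were detected with a 2 h MTT step, and the concentration giving 50% inhibition was taken as GI50.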

Tau protein = assay: Inhibition of Tau phosphorylation (Western blot, pSer202) in SH-SY5Y cells; type: cell-based; conditions: 4 hrs
Protocol: SH-SY5Y cells expressing Tau protein were cultured in DMEM containing 10% FBS. 2.5×10^6 cells were placed in a 6-well plate and incubated at 5% CO2 and 37° C. for 16 hrs. The compounds obtained in the above Examples serially diluted ⅓ from 3 uM to 0.5 nM or the compounds in a concentration of 0.3, 0.1, 0.03, 0.01, 0.003 uM were treated for 4 hrs in DMEM containing 5% FBS. After 4 hrs, the culture solution was removed, washed with PBS, and cells were lysed by adding 100 ul of lysis buffer. The lysis buffer consisted of 50 mM Tris-HCl (pH 7.5), 150 mM NaCl, 5 mM EDT, 1 mM EGTA, 50 mM NaF, 1 mM PMSF, 1 mM Na3VO4, 2.5 mM DTT, 1% Triton X-100, and Protease inhibitor (Pierce). The lysed cells were centrifuged at 10,000 rpm and 4° C. for 10 min and the proteins in the supernatant were quantified. 25 ug of the proteins were electrophoresed on a SDS-PAGE gel and transferred to PVDF (Amersharm) membrane. The PVDF membrane was immersed in T-PBS containing 10% skim milk and shaken for 1 hr at room temperature. The primary antibody, Phosph-Tau[pSer202] (Abcam), diluted 1:1500 in T-PBS solution containing 5% skim milk was reacted with the membrane at room temperature for 2 hrs. The membrane was washed with T-PBS. The secondary antibody, Anti-rabbit IgG HRP, diluted 1:5000 was added to the membrane, reacted at room temperature for 1 hr, and washed.

T4 sequence (Q00535 whole entry): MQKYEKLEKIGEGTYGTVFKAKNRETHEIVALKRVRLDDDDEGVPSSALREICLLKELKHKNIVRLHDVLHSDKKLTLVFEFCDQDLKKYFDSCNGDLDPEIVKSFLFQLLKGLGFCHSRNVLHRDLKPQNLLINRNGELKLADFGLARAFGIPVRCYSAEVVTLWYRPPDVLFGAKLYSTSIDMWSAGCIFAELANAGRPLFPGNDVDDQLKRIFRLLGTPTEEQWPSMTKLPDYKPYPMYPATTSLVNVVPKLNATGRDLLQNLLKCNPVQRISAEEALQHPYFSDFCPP
T4 sequence (Q15078 99-307 partner limits assumed): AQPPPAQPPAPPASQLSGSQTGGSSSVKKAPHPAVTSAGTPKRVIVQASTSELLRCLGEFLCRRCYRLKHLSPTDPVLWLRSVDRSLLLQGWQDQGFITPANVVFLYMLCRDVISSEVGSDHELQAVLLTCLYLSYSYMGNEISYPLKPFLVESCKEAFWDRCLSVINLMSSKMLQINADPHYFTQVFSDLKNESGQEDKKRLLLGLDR
T1 sequence (Q00534 whole entry): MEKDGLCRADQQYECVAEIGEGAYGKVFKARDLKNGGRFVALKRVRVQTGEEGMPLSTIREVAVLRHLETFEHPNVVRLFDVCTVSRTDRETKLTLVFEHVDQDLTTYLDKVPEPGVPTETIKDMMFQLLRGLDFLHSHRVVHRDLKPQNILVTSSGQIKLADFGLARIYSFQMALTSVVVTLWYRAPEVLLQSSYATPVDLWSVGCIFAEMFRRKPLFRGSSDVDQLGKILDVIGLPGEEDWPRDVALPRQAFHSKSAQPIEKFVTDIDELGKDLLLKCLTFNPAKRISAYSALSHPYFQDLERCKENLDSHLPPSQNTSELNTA
T1 sequence (P30281 whole entry partner): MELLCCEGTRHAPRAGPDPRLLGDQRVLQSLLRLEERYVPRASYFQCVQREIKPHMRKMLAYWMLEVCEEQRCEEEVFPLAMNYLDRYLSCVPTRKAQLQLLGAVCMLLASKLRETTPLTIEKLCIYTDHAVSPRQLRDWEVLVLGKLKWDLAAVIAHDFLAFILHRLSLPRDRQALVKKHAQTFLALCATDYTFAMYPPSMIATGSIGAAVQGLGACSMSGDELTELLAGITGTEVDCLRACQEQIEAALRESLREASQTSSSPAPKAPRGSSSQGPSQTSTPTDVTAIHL
T3 sequence (P11802 whole entry): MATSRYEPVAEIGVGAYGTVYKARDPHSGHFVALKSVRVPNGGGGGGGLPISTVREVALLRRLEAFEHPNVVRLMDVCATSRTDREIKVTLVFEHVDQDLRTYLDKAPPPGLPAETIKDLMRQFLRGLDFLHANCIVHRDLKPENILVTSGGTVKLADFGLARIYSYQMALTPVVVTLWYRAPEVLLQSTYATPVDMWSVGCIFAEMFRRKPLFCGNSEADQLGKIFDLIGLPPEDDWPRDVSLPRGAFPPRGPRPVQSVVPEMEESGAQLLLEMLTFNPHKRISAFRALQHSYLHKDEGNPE
T3 sequence (P24385 whole entry partner): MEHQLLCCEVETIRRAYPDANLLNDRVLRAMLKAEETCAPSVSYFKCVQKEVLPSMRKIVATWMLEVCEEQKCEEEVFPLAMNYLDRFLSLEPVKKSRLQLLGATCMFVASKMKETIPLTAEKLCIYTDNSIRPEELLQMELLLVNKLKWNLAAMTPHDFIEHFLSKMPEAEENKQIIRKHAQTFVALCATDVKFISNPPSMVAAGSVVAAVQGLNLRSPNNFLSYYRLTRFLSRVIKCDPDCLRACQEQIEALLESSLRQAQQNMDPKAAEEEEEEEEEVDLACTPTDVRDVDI
T5 sequence (P06493 whole entry): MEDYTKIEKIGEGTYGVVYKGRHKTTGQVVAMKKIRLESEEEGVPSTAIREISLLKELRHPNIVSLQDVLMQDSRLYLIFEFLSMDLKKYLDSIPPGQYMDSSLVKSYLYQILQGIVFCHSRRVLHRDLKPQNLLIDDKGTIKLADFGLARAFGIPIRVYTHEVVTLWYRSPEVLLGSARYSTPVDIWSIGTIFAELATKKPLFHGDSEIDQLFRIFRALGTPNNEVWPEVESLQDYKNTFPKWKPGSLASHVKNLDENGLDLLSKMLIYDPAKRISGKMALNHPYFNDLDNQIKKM
T5 sequence (P14635 whole entry partner): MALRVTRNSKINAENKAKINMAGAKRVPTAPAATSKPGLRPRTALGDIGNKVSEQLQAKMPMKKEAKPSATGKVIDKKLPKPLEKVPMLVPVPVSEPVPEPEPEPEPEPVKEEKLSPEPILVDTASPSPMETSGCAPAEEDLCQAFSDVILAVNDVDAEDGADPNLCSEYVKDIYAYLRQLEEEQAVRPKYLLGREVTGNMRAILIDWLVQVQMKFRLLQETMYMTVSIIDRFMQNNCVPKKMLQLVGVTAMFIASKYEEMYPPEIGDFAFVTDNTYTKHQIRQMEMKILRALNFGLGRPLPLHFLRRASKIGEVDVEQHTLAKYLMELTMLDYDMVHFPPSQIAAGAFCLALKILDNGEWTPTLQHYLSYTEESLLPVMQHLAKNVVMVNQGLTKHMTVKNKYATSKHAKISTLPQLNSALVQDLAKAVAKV

| Structure (SMILES) | GI50 (NCI-H23; Homo sapiens, NCI-H23, 72 h) [nM] | GI50 (HCT116; Homo sapiens, HCT-116, 72 h) [nM] | GI50 (A549; Homo sapiens, A549, 72 h) [nM] | IC50 (CDK6/cyclinD3) [nM] | IC50 (CDK2/cyclinE) [nM] | IC50 (CDK4/cyclinD1) [nM] | IC50 (CDK5/p25) [nM] | IC50 (CDK1/cyclinB) [nM] | GI50 (U-87MG; Homo sapiens, U-87 MG, 72 h) [nM] | GI50 (HCT116; 72 hrs) [nM] | GI50 (U-87MG; 72 hrs) [nM] | other results |
| --- | --- | --- | --- | --- | --- | --- | --- | --- | --- | --- | --- | --- |
| CN(C)c1cc(-c2nc(-c3ccnc(N)c3F)ccc2O)nc(N)n1 [Example 52, 2′-amino-6-(2-amino-6-(dimethylamino)pyrimidin-4-yl)-3′-fluoro-[2,4′-bipyridin]-5-ol] | 30 | 10 | 20 | 59.6 | 14.6 | 63.7 | 1.9 | 0.7 |  |  |  |  |
| Nc1nccc(-c2cc(-c3ccnc(N)n3)c(O)cn2)n1 [Example 3, 4,6-bis(2-aminopyrimidin-4-yl)pyridin-3-ol] |  | 1150 |  |  |  |  |  |  | 2640 |  |  | GI50 (SH-SY5Y; Homo sapiens, SH-SY5Y, 72 h): 880 nM; GI50 (SK-N-SH; Homo sapiens, SK-N-SH, 72 h): 1430 nM |
| Nc1nccc(-c2nc(-c3ccnc(N)c3F)ccc2O)n1 [Example 68, 2′-amino-6-(2-aminopyrimidin-4-yl)-3′-fluoro-[2,4′-bipyridin]-5-oloxalate] |  |  |  |  |  |  |  |  |  | 10 | 100 | GI50 (SH-SY5Y; 72 hrs): 10 nM; GI50 (SK-N-SH; 72 hrs): 30 nM |
| Nc1nccc(-c2nc(-c3ccnc(N)c3F)ccc2O)n1 [Example 69, 2′-amino-6-(2-aminopyrimidin-4-yl)-3′-fluoro-[2,4′-bipyridin]-5-ol 2malonate] |  |  |  |  |  |  |  |  |  | 80 | 90 | GI50 (SH-SY5Y; 72 hrs): 4 nM; GI50 (SK-N-SH; 72 hrs): 20 nM |
| Nc1nccc(-c2nc(-c3cccc(O)c3)ccc2O)n1 [Example 13, 2-(2-aminopyrimidin-4-yl)-6-(3-hydroxyphenyl)pyridin-3-ol] |  | 6970 |  |  |  |  |  |  | 4600 |  |  | GI50 (SH-SY5Y; Homo sapiens, SH-SY5Y, 72 h): 680 nM; GI50 (SK-N-SH; Homo sapiens, SK-N-SH, 72 h): 7220 nM |
| CN1CCN(c2cc(-c3nc(-c4ccnc(N)c4F)ccc3O)nc(N)n2)CC1 [Example 53, 2′-amino-6-(2-amino-6-(4-methylpiperazin-1-yl)pyrimidin-4-yl)-3′-fluoro-[2,4′-bipyridin]-5-ol] | 40 | 10 | 20 | 86.8 | 10.8 | > 200 | 2.8 | 4 | 30 |  |  |  |
| Nc1cccc(-c2ccc(O)c(-c3ccnc(N)n3)n2)c1 [Example 16, 6-(3-aminophenyl)-2-(2-aminopyrimidin-4-yl)pyridin-3-ol] |  | 1330 |  |  |  |  |  |  | 3600 |  |  | GI50 (SH-SY5Y; Homo sapiens, SH-SY5Y, 72 h): 570 nM; GI50 (SK-N-SH; Homo sapiens, SK-N-SH, 72 h): 2910 nM |
| Cc1cc(-c2nc(-c3ccnc(N)c3F)ccc2O)nc(N)n1 [Example 24, 2′-amino-6-(2-amino-6-methylpyrimidin-4-yl)-3′-fluoro-[2,4′-bipyridin]-5-ol] |  | 20 |  | 33.8 | 0.9 | 342 | 0.7 | 0.6 |  |  |  |  |
| Nc1nc(-c2nc(-c3ccnc(N)c3F)ccc2O)cc(C2CCNCC2)n1 [Example 33, 2′-amino-6-(2-amino-6-(piperidin-4-yl)pyrimidin-4-yl)-3′-fluoro-[2,4′-bipyridin]-5-ol] | 1710 | 50 | 190 | 240 | 3.7 | 39.3 | 9.89 | 17.1 | 150 |  |  | GI50 (T98G; Homo sapiens, T98G, 72 h): 260 nM |
| CC(C)c1cnc(N)nc1-c1nc(-c2ccnc(N)c2F)ccc1O [Example 104] |  |  |  | 54.1 | 1.6 | 15.2 | 0.8 | 1.3 |  | 30 | 70 | GI50 (NCI-H23; 72 hrs): 80 nM; GI50 (T98G; 72 hrs): 50 nM; GI50 (A549; 72 hrs): 80 nM |
| CC(C)c1cc(-c2nc(-c3ccnc(N)c3F)ccc2O)nc(N)n1 [Example 31, 2′-amino-6-(2-amino-6-isopropylpyrimidin-4-yl)-3′-fluoro-[2,4′-bipyridin]-5-ol] | 100 | 30 | 180 | 61.5 | 0.59 | 35.9 | 3.13 | 2.3 |  |  |  |  |
| CN1CCC(c2cc(-c3nc(-c4ccnc(N)c4F)ccc3O)nc(N)n2)CC1 [Example 34, 2′-amino-6-(2-amino-6-(1-methylpiperidin-4-yl)pyrimidin-4-yl)-3′-fluoro-[2,4′-bipyridin]-5-ol] |  |  |  | 176 | 2.2 | 31.5 | 2.2 | 2.1 |  | 20 | 30 | GI50 (NCI-H23; 72 hrs): 70 nM; GI50 (T98G; 72 hrs): 150 nM; GI50 (A549; 72 hrs): 40 nM; Phosphorylation (%) of Tau (Tau protein; 0.003 uM): 103%; Phosphorylation (%) of Tau (Tau protein; 0.01 uM): 27%; Phosphorylation (%) of Tau (Tau protein; 0.03 uM): 13%; Phosphorylation (%) of Tau (Tau protein; 0.1 uM): 21%; Phosphorylation (%) of Tau (Tau protein; 0.3 uM): 21% |
| Nc1nc(-c2nc(-c3ccnc(N)c3F)ccc2O)cc(N2CCOCC2)n1 [Example 51, 2′-amino-6-(2-amino-6-morpholinopyrimidin-4-yl)-3′-fluoro-[2,4′-bipyridin]-5-ol] | 10 | 3 | 10 | 35.8 | 4.5 | 81.3 | 2.8 | 1 | 10 |  |  | GI50 (T98G; Homo sapiens, T98G, 72 h): 10 nM |
| CCCc1cnc(N)nc1-c1nc(-c2ccnc(N)c2F)ccc1O [Example 57, 2′-amino-6-(2-amino-5-propylpyrimidin-4-yl)-3′-fluoro-[2,4′-bipyridin]-5-ol] | 40 | 20 |  |  |  |  |  |  | 20 |  |  | GI50 (T98G; 72 hrs): 60 nM; GI50 (A549; 72 hrs): 40 nM |
| Cc1c(-c2nc(-c3ccnc(N)c3F)ccc2O)nc(N)nc1C1CCN(C)CC1 [Example 93, 2′-amino-6-(2-amino-5-methyl-6-(1-methylpiperidin-4-yl)pyrimidin-4-yl)-3′-fluoro-[2,4′-bipyridin]-5-ol 4hydrochloride] |  |  |  |  |  |  |  |  |  | 70 | 110 | GI50 (NCI-H23; 72 hrs): 230 nM; GI50 (T98G; 72 hrs): 100 nM; GI50 (A549; 72 hrs): 100 nM |
